From US20100063102A1, “TREATMENT OF FAECAL INCONTINENCE” (UROGENE, priority 2007, published 2010)
“Also recorded” adds a separate entry of the source.

System: striated anal sphincter
Experiment: Effect on the electromyographic activity of the rabbit striated anal sphincter under bladder irritation (SS-EMG)
Type: in vivo
Experimental: The effect of the HP749 compound was tested on rabbits under conditions of bladder irritation. Female rabbits of the New Zealand race weighing from 2.5 to 3.5 kg were used. The bladder irritation was caused by transcontinuous bladder infusion of 0.5% acetic acid. Under these conditions, the striated anal sphincter electromyography is increased. Throughout the experiment, the animal was placed in the supine position and anaesthetized with 2-3% of halothane. The striated sphincter electromyography (SS-EMG) was carried out using two electrodes (30-gauge needle) placed percutaneously in the striated anal sphincter, approximately 5-10 mm from the anus (laterally). The electric signals were amplified on an ML136 preamplifier (AD Instruments, PanLab, Barcelona, Spain), filtered below 1 Hz and above 5 KHz and presented in a PowerLab window. The striated sphincter electromyography (SS-EMG) was recorded continuously during the cystometry. Cumulative doses of the HP749 compound (0, 1, 3 and 5 mg/kg) were administered through an intravenous canula connected to the ear vein. The medicaments in saline solution were freshly prepared before each experiment and administered in a volume of 1 ml, followed by rinsing with 1 ml of physiological saline solution. The results were expressed by the mean±the standard error of the […]. The electromyographic values obtained under conditions of irritation after administration of a placebo were used as control values. The effects of the HP749 compound were analysed and compared with the control values by means of a Wilcoxon test. The results obtained were considered to be significant when p<0.05.

Compound: CCCN(c1ccncc1)n1ccc2ccccc21 [HP749, N-propyl-N-(4-pyridinyl)-1H-indol-1-amine]
- mean increase in the EMG activity compared with the control value (anaesthetized female New Zealand rabbits, bladder irritation with 0.5% acetic acid, cumulative i.v. doses 1, 3 and 5 mg/kg, control = placebo, p<0.01): 155%
- effect on the electromyographic (EMG) activity of the striated anal sphincter (at all the doses (1, 3 and 5 mg/kg i.v.), FIG. 1, Wilcoxon test vs placebo control): significant effect; also recorded: powerful effect
- dose at which the effect on the external anal sphincter appeared to have reached its maximum (rabbits, i.v., lowest dose tested): 1 mg/kg
